Results on two compounds are retold here after patent US5880099A, “Inositol polyphosphates and methods of using same” (The Regents of the University of California, priority 1997, dated 1999).

Common to all, as to assay type: cell-based, human
The subject of test [1] is T84 cells (EGF inhibition of cyclic AMP-mediated chloride ion secretion). The test is described as follows: EGF inhibition of cyclic AMP-mediated chloride ion secretion, reversal.
Test [2] concerns T84 cells (PtdInsP3-mediated decrease in chloride ion secretion). The test is described as follows: Reversal of PtdInsP3-mediated decrease in chloride ion secretion in T84 cells. As to conditions: FIG. 7d, 7e. As to the method: T84 cells also were preincubated with cell permeable Ins(1,4,5,6)P4 derivatives to determine whether Ins(1,4,5,6)P4 can reverse PtdInsP3 -mediated decreases in chloride ion secretion.

The subject of test [3] is colonic epithelial T84 cells (calcium-mediated chloride ion secretion). The test is described as follows: Inhibition of calcium-mediated chloride ion secretion (Table I summary). The method, boiled down:
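T84 monolayers (passages 18-48, 7-10 days on permeable supports) preincubated with 100, 200 or 400 μM Bt2-Ins(3,4,5,6)P4/AM for 30 min before Ussing-chamber mounting. After another 30 min, 0.1 mM histamine added; chloride secretion recorded as voltage-clamped short circuit current (Isc).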

The subject of a further test is intracellular calcium. The test is described as follows: Intracellular calcium concentration in treated cells. The method, then:
Elevation in intracellular calcium concentration leads to increased chloride ion secretion. To ensure that none of the effects of the inositol polyphosphate derivatives on chloride ion secretion were due to changes in calcium levels, the concentration of intracellular calcium was measured in cells treated with the inositol polyphosphate derivatives. […] None of the compounds tested altered intracellular calcium levels by themselves or modified levels of intracellular calcium stimulated with carbachol or thapsigargin. Therefore, the effects of inositol polyphosphate derivatives on chloride ion secretion are not due to any effect on intracellular calcium concentrations.

The subject of test [4] is T84 cells (EGF induced inhibition of chloride ion secretion). The test can be described thus: EGF induced inhibition of carbachol-stimulated chloride ion secretion in T84 cells and its reversal. The note with it: EGF 16.3 nM, carbachol 100 μM. The method, then:
After an additional 15 min incubation, 100 μM carbachol was added to acutely elevate intracellular calcium concentrations. Controls also were stimulated with carbachol but were not pretreated with EGF. Data are the means of duplicate measurements from a representative experiment (total of three experiments).

Test [5] deals with T84 cells (histamine-stimulated chloride ion secretion). The test can be described thus: Histamine-stimulated chloride ion secretion (short circuit current) in T84 monolayers. The method, then: Enantiomerically pure 1,2-Bt2 -Ins(3,4,5,6)P4 /AM was synthesized to determine if 1,2-Bt2 -Ins(3,4,5,6)P4 /AM mediates the uncoupling of chloride ion secretion from intracellular calcium concentrations. […] After 7-10 days of incubation on SNAP-WELLS (Corning Costar; Cambridge, Mass.), monolayers had formed tight junctions. Cell monolayers were preincubated with 100, 200 or 400 μM Bt2 -Ins(3,4,5,6)P4 /AM for 30 min prior to mounting. After an additional 30 min, 0.1 mM histamine was added and chloride ion secretion was monitored. Chloride ion secretion was measured as short circuit current (Isc) across T84 monolayers grown to confluence and mounted in Ussing chambers equipped with voltage clamps (Physiologic Instruments; San Diego, Calif.). Data was acquired and analyzed using "Acquire and Analyze" software (Physiologic Instruments).
Initial studies were directed towards understanding structural determinants of Ins(3,4,5,6)P4 responsible for the inhibitory effect on calcium-mediated chloride ion secretion. A series of cell permeable inositol polyphosphate derivatives were synthesized. These derivatives contained either one or two non-hydrolyzable chemical groups on the 1, 2 or 3 position. T84 monolayers were preincubated for 30 minutes with 200 μM of 2-Bt-1-Me-Ins(3,4,5,6)P4 /AM, Me2 -Ins(3,4,5,6)P4 /AM, Me2 -Ins(1,4,5,6)P4 /AM or 2-Bt-3-Me-Ins(1,4,5,6)P4 /AM.
Following the incubation, cells were mounted in Ussing chambers. Calcium-mediated chloride ion secretion was stimulated with histamine (10^-4 M). Control values were the response to histamine in coincubated monolayers. Data are represented as mean peak ΔIsc ±SEM, expressed as % control for 8 to 10 experiments. Significant differences were identified using the Student's two-tailed t test.

The next test concerns Ins(3,4,5,6)P4. The test is described as follows: Intracellular Ins(3,4,5,6)P4 level in (3H)-inositol labeled T84 cells. As to conditions: 400 μM D,L-Bt3 -Ins(1,3,4)P3 /AM.
The test system of test [6] is T84 cells (carbachol-stimulated chloride ion secretion). The test can be described thus: Carbachol-stimulated (calcium-mediated) chloride ion secretion in T84 cells. The method, then: The cell permeable derivative D,L-Bt3 -Ins(1,3,4)P3 /AM was synthesized. Colonic epithelial T84 cells were preincubated for 30 min with 400 μM D,L-Bt3 -Ins(1,3,4)P3 /AM prior to mounting in Ussing chambers and measuring ΔIsc. At 10 min, carbachol (10^-4 M) was added to transiently stimulate calcium-mediated chloride ion secretion. Data were the average of 8 experiments with p<0.04, unpaired, two-sided student's t-test. […]

The structures appear in SMILES notation.

Consider `CCCC(=O)O[C@@H]1[C@H](OC(=O)CCC)[C@@H](OP(=O)(OCOC(C)=O)OCOC(C)=O)[C@H](OP(=O)(OCOC(C)=O)OCOC(C)=O)[C@@H](OP(=O)(OCOC(C)=O)OCOC(C)=O)[C@@H]1OP(=O)(OCOC(C)=O)OCOC(C)=O` [Bt2 -Ins(1,4,5,6)P4 /AM, 2,3-di-O butyryl-myo-inositol 1,4,5,6-TKphosphate oct (acetoxymethyl) ester], for which the “reversal of EGF inhibition of cyclic AMP-mediated chloride ion secretion (in words)” value in test [1] is listed as “did not reverse EGF inhibition of cyclic AMP-mediated chloride ion secretion”. Further, in test [2], the “effect on PtdInsP3-mediated decrease in chloride ion secretion (in words)” value is recorded as “enhances chloride ion secretion”. In test [3] (pathway: PtdInsP3), the “Mechanism and Inositol Polyphosphate Pathway Affected” value was “Antagonist of”. Also, the “effect on intracellular calcium (in words)” value in the test on intracellular calcium (alone) is “did not elevate intracellular calcium”. Moreover, the “effect on calcium response to thapsigargin or carbachol (in words)” value with intracellular calcium (thapsigargin or carbachol stimulated) is “did not elevate intracellular calcium or the calcium response to thapsigargin”. The “effect on carbachol-stimulated chloride ion secretion / EGF induced inhibition (in words)” value is on record as “enhances chloride ion secretion” in test [4] and “significantly reversed EGF induced inhibition of chloride ion secretion” in test [4] (listed as Bt2 Ins(1,4,5,6)P4 /AM). For the same compound, the activity at 400 µM in test [5] (Homo sapiens, T84, 0.5 h, 400 μM compound alone, mean ± SEM, read-out: Peak ΔIsc (% Control) after histamine (100 μM)) was determined as 138 ± 20.7%. Moreover, the “effect on histamine-stimulated / calcium-mediated chloride ion secretion (in words)” value in test [5] (T84 cells) is “did not inhibit chloride ion secretion and in fact led to a slight increase in chloride ion secretion”.

On to `CCCC(=O)O[C@@H]1[C@@H](OC(=O)CCC)[C@H](OP(=O)(OCOC(C)=O)OCOC(C)=O)[C@@H](OP(=O)(OCOC(C)=O)OCOC(C)=O)[C@@H](OC(=O)CCC)[C@H]1OP(=O)(OCOC(C)=O)OCOC(C)=O` (relative stereo) [D,L-Bt3 -Ins(1,3,4)P3 /AM, D,L-2,5,6-tri-O-butyryl-myo-inositol 1,3,4-trisphosphate hex (acetoxymethyl) ester], for which, in test [3] (pathway: Ins (3,4,5,6)P4), the “Mechanism and Inositol Polyphosphate Pathway Affected” value was “Agonist of”. For the same compound, in the test on Ins(3,4,5,6)P4, the “increase in Ins(3,4,5,6)P4” value was “three-fold increase”. Further, the “peak ΔIsc” value in test [6] (400 μM, 30 min preincubation, carbachol 10^-4 M, 8 experiments, control 15.2±2.8, p<0.04) came to 7.9±1.6. For the same compound, the inhibition at 400 µM in test [6] (Homo sapiens, 0.5 h, 400 μM D,L-Bt3 -Ins(1,3,4)P3 /AM, read-out: decrease of calcium-mediated chloride ion secretion) is approximately 50%. For the same compound, the “effect on carbachol-stimulated / calcium-mediated chloride ion secretion (in words)” value in test [6] (T84 cells, preincubation) is “inhibits calcium-mediated chloride ion secretion”.
